Patent publication US20100331348A1, “TROPANE DERIVATIVES USEFUL AS PESTICIDES” (SYNGENTA CROP PROTECTION, INC., priority 2007, published 2010)
Like-named read-outs stand apart in the source and are kept apart here.

What was measured:
Pyricularia oryzae = assay: whole plant or invertebrate; format: in vivo; conditions: foliar, 96 h
Aedes aegypti = Aedes aegypti (Yellow fever mosquito) larvae test; format: in vivo; conditions: 48 h
Plutella xylostella = Plutella xylostella (Diamond back moth) artificial diet test; conditions: 120 h, read-out: control of Plutella xylostella
Tetranychus urticae = conditions: foliar, 192 h, read-out: control of Tetranychus urticae
[1] = test system: Puccinia recondita f.sp. tritici; assay: Puccinia recondita f.sp. tritici (wheat brown rust) leaf disk assay; format: in vivo; conditions: foliar, 216 h, preventive, nine days after inoculation, read-out: control of fungal infection, Puccinia recondita f.sp. tritici
[2] = test system: Erysiphe graminis f.sp. tritici; assay: Erysiphe graminis f.sp. tritici (wheat powdery mildew) leaf disk assay; format: in vivo; conditions: Blumeria graminis, foliar, 96 h, preventive, four days after inoculation, read-out: control of fungal infection, Erysiphe graminis fsp. tritici
Plasmopara viticola = Plasmopara viticola (downy mildew of grapevine) leaf disk assay; format: in vivo; conditions: foliar, 168 h, preventive, seven days after inoculation, read-out: control of fungal infection, Plasmopara viticola
Phytophthora infestans = assay: whole plant or invertebrate; format: in vivo; conditions: foliar, 96 h, read-out: control of fungal infection, Phytophthora infestans
[3] = read-out: control of fungal infection, Pyricularia oryzae (at least 60% list)
[4] = read-out: control of fungal infection, Pyricularia oryzae (at least 80% list)

| Structure (SMILES) | pest or weed control at 200 ppm (Pyricularia oryzae; [3]) [%] | pest or weed control at 200 ppm (Tetranychus urticae) [%] | pest or weed control at 200 ppm [1] [%] | pest or weed control at 200 ppm [2] [%] | melting point [°C] | further results |
| --- | --- | --- | --- | --- | --- | --- |
| Fc1ccc(CON=C2CC3CCC(C2)N3c2ncnc3sccc23)c(Cl)c1 [Example 5.192] | ≥ 60 | ≥ 80 |  |  |  | pest or weed control at 2 ppm (Aedes aegypti): ≥ 80%; pest or weed control at 200 ppm (Plutella xylostella): ≥ 80% |
| FC(F)(F)c1ccc(ON=C2CC3CCC(C2)N3c2ncnc3sccc23)nc1 [Example 5.170] | ≥ 60 | ≥ 80 | ≥ 80 | ≥ 80 |  |  |
| Cn1nc(C(F)(F)F)cc1C(=O)N1[C@@H]2CC[C@H]1CC(Oc1cc(C(F)(F)F)ccn1)C2 (some centres unmarked) [Example 2.217] |  |  |  | ≥ 80 | 122 |  |
| N#CCC1CC2CCC(C1)N2c1ncnc2sccc12 (centres unmarked) [Example 7.1] |  | ≥ 80 |  |  |  |  |
| Cc1cc(N2[C@@H]3CC[C@H]2CC(Oc2ccc(C(F)(F)F)cn2)C3)n2ncnc2n1 (some centres unmarked) [Example 2.139] | ≥ 60 |  |  | ≥ 80 | 240 |  |
| CCOC(=O)C=C1CC2CCC(C1)N2c1ncnc2sccc12 [Example 3.34] | ≥ 60 |  | ≥ 80 |  | 101 | pest or weed control at 200 ppm (Pyricularia oryzae; [4]): ≥ 80%; pest or weed control at 200 ppm (Plasmopara viticola): ≥ 80% |
| CCc1ncnc(C(C)c2ncnc(N3C4CCC3CC(=NO)C4)c2Cl)c1Cl (centres unmarked) [Example 5.4] |  |  |  | ≥ 80 | 162 |  |
| CCc1ncnc(N2C3CCC2CC(=NOCc2ccc(SC(F)(F)F)cc2)C3)c1Cl [Example 5.99] |  | ≥ 80 | ≥ 80 | ≥ 80 |  |  |
| Cc1nsc(N2[C@@H]3CC[C@H]2CC(Oc2ccc(C(F)(F)F)cn2)C3)n1 (some centres unmarked) [Example 2.204] |  |  | ≥ 80 |  | 169 |  |
| c1ccc2cc(CON=C3CC4CCC(C3)N4c3ncnc4sccc34)ccc2c1 [Example 5.147] |  | ≥ 80 | ≥ 80 | ≥ 80 |  | pest or weed control at 2 ppm (Aedes aegypti): ≥ 80%; pest or weed control at 200 ppm (Plutella xylostella): ≥ 80%; pest or weed control at 200 ppm (Phytophthora infestans): ≥ 80% |
| FC(F)(F)c1ccnc(OC2C[C@H]3CC[C@@H](C2)N3c2ncnc3sccc23)c1 (some centres unmarked) [Example 2.51] | ≥ 60 |  |  |  | 172 |  |
| FC(F)(F)c1ccnc(OC2C[C@H]3CC[C@@H](C2)N3c2ccncn2)c1 (some centres unmarked) [Example 2.87] | ≥ 60 |  |  |  | 108 |  |
| Cc1nn(C)c2nccc(N3C4CCC3CC(=NOc3ncc(C(F)(F)F)cc3Cl)C4)c12 [Example 5.261] |  |  |  | ≥ 80 | 153 |  |
| CCc1ncnc(N2C3CCC2CC(=NOCc2ccc(OC(F)(F)F)cc2)C3)c1Cl [Example 5.66] |  | ≥ 80 | ≥ 80 | ≥ 80 |  | pest or weed control at 200 ppm (Plutella xylostella): ≥ 80% |
| Cc1nn(C)c2nccc(N3[C@@H]4CC[C@H]3CC(Oc3ccc(C(F)(F)F)cn3)C4)c12 (some centres unmarked) [Example 2.194] |  | ≥ 80 |  |  |  |  |
| O=C1c2ccccc2C(=O)N1OC1C[C@H]2CC[C@@H](C1)N2c1ncnc2sccc12 (some centres unmarked) [Example 2.64] | ≥ 60 |  | ≥ 80 |  | 190 | pest or weed control at 200 ppm (Pyricularia oryzae; [4]): ≥ 80% |
| FC(F)(F)c1cccc(OC2C[C@H]3CC[C@@H](C2)N3c2cc(Cl)ncn2)n1 (some centres unmarked) [Example 2.90] |  |  |  | ≥ 80 | 136 |  |
| CCc1ncnc(N2C3CCC2CC(=CC#N)C3)c1Cl [Example 3.1] |  |  | ≥ 80 |  | 73 |  |
| Fc1cc(F)c(CON=C2CC3CCC(C2)N3c2ncnc3sccc23)cc1F [Example 5.226] |  |  | ≥ 80 | ≥ 80 | 106 |  |
| Cc1nn(C)c2nccc(N3[C@@H]4CC[C@H]3CC(Oc3ncc(Cl)cc3F)C4)c12 (some centres unmarked) [Example 1.252] | ≥ 60 |  |  | ≥ 80 | 112 |  |
| CCc1ncnc(N2C3CCC2CC(=NOCc2ccc(-c4ccccc4)cc2)C3)c1Cl [Example 5.22] |  | ≥ 80 | ≥ 80 | ≥ 80 |  |  |
| CS(=O)(=O)OC1C[C@H]2CC[C@@H](C1)N2c1ncnc2sccc12 (some centres unmarked) [Example 2.10] |  |  |  | ≥ 80 | 135 |  |
| CCc1ncnc(N2C3CCC2CC(=NOCc2ccc(C(C)C)cc2)C3)c1Cl [Example 5.20] |  | ≥ 80 | ≥ 80 | ≥ 80 |  | pest or weed control at 200 ppm (Plasmopara viticola): ≥ 80% |

| Structure (SMILES) | pest or weed control at 200 ppm (Pyricularia oryzae; [3]) [%] | pest or weed control at 200 ppm (Tetranychus urticae) [%] | pest or weed control at 200 ppm [1] [%] | pest or weed control at 200 ppm [2] [%] | melting point [°C] | further results |
| --- | --- | --- | --- | --- | --- | --- |
| CCc1ncnc(N2C3CCC2CC(=NOCc2ccc(C(F)(F)F)c(F)c2)C3)c1Cl [Example 5.86] |  | ≥ 80 | ≥ 80 |  |  | pest or weed control at 200 ppm (Pyricularia oryzae; [4]): ≥ 80% |
| FC(F)(F)c1ccc(OC2C[C@H]3CC[C@@H](C2)N3c2ccnc3c(Cl)cccc23)nc1 (some centres unmarked) [Example 2.206] | ≥ 60 | ≥ 80 |  |  |  | pest or weed control at 200 ppm (Plasmopara viticola): ≥ 80% |
| FC(F)(F)Oc1ccc(CON=C2CC3CCC(C2)N3c2ncnc3sccc23)cc1 [Example 5.210] |  | ≥ 80 | ≥ 80 | ≥ 80 |  | pest or weed control at 2 ppm (Aedes aegypti): ≥ 80%; pest or weed control at 200 ppm (Plutella xylostella): ≥ 80%; pest or weed control at 200 ppm (Phytophthora infestans): ≥ 80% |
| Cc1nsc(N2[C@@H]3CC[C@H]2CC(Oc2ccc(C(F)(F)F)cn2)C3)c1Cl (some centres unmarked) [Example 2.199] |  |  |  | ≥ 80 | 46 |  |
| Cc1nn(C)c2nccc(N3[C@@H]4CC[C@H]3CC(Oc3nc(C(F)(F)F)cs3)C4)c12 (some centres unmarked) [Example 2.107] |  |  |  | ≥ 80 | 184 |  |
| N#Cc1c(Cl)nsc1N1[C@@H]2CC[C@H]1CC(Oc1cc(C(F)(F)F)ccn1)C2 (some centres unmarked) [Example 2.196] |  |  |  | ≥ 80 | 103 |  |
| CCc1ncnc(N2[C@@H]3CC[C@H]2CC(Oc2nc(Br)ccc2Cl)C3)c1Cl (some centres unmarked) [Example 1.167] |  | ≥ 80 |  | ≥ 80 |  |  |
| Cc1ccc(CON=C2CC3CCC(C2)N3c2ncnc3sccc23)cc1C [Example 5.179] | ≥ 60 | ≥ 80 | ≥ 80 | ≥ 80 |  | pest or weed control at 2 ppm (Aedes aegypti): ≥ 80%; pest or weed control at 200 ppm (Plutella xylostella): ≥ 80% |
| FC(F)(F)c1cnc(ON=C2CC3CCC(C2)N3c2ncnc3sccc23)c(Cl)c1 [Example 5.207] | ≥ 60 |  | ≥ 80 | ≥ 80 | 156 |  |
| Cc1cc(N2[C@@H]3CC[C@H]2CC(Oc2cccc(C(F)(F)F)n2)C3)n2ncnc2n1 (some centres unmarked) [Example 2.101] |  |  |  |  | 212 | pest or weed control at 200 ppm (Plasmopara viticola): ≥ 80% |
| Fc1c(Cl)cccc1CON=C1CC2CCC(C1)N2c1ncnc2sccc12 [Example 5.217] | ≥ 60 | ≥ 80 | ≥ 80 | ≥ 80 |  | pest or weed control at 200 ppm (Pyricularia oryzae; [4]): ≥ 80%; pest or weed control at 2 ppm (Aedes aegypti): ≥ 80%; pest or weed control at 200 ppm (Plutella xylostella): ≥ 80% |
| CCc1ncnc(N2C3CCC2CC(=Cc2ccccc2)C3)c1Cl [Example 3.6] | ≥ 60 | ≥ 80 |  |  |  | pest or weed control at 2 ppm (Aedes aegypti): ≥ 80%; pest or weed control at 200 ppm (Plutella xylostella): ≥ 80%; pest or weed control at 200 ppm (Phytophthora infestans): ≥ 80% |
| CCc1ncnc(N2C3CCC2CC(O)(CC#C[Si](C)(C)C)C3)c1Cl (centres unmarked) [Example 7.34] | ≥ 60 |  |  |  | 85 |  |
| Cc1cc(C(F)(F)F)cc(ON=C2CC3CCC(C2)N3c2ncnc3sccc23)n1 [Example 5.196] |  |  | ≥ 80 | ≥ 80 | 167 |  |
| CCC(=O)c1ccc(OC2C[C@H]3CC[C@@H](C2)N3c2ncnc3sccc23)cc1 (some centres unmarked) [Example 2.37] |  | ≥ 80 |  | ≥ 80 |  |  |
| OC1(CC#Cc2ccccc2)CC2CCC(C1)N2c1ncnc2sccc12 (centres unmarked) [Example 7.15] |  |  | ≥ 80 |  | 173 |  |
| Cc1noc2ncnc(N3[C@@H]4CC[C@H]3CC(Oc3cccc(C(F)(F)F)n3)C4)c12 (some centres unmarked) [Example 2.121] |  |  | ≥ 80 | ≥ 80 | 159 |  |
| O=C1c2ccccc2C(=O)N1OC1C[C@H]2CC[C@@H](C1)N2c1ncnc2sccc12 (some centres unmarked) [1.73] |  |  |  |  | 243 |  |
| CCc1ncnc(N2[C@@H]3CC[C@H]2CC(ON)C3)c1Cl (some centres unmarked) |  |  |  |  | 70 |  |
| CC(C)(C)c1ccc(CON=C2CC3CCC(C2)N3c2ncnc3sccc23)cc1 [Example 5.167] |  | ≥ 80 | ≥ 80 | ≥ 80 |  |  |
| FC(F)(F)c1ccc(-c2nc(CON=C3CC4CCC(C3)N4c3ncnc4sccc34)no2)cc1 [Example 5.260] |  | ≥ 80 | ≥ 80 | ≥ 80 |  |  |
| Cc1noc2ncnc(N3[C@@H]4CC[C@H]3CC(Oc3ccc(C(F)(F)F)cn3)C4)c12 (some centres unmarked) |  |  |  |  | 238 |  |
| N#Cc1ccc(OC2C[C@H]3CC[C@@H](C2)N3c2ncnc3sccc23)cc1F (some centres unmarked) [Example 1.259] |  | ≥ 80 | ≥ 80 |  |  | pest or weed control at 2 ppm (Aedes aegypti): ≥ 80% |
